Measurements reported in patent US5912161A, “Enzymes for the production of 2-keto-L-gulonic acid” (priority 1996, dated 1999).

Legend:
[1] = biological target: T1, Corynebacterium sp. (ATCC 31090) 2,5-DKG reductase A, wild type, SEQ ID NO:1 (Corynebacterium sp., UniProt P06632); experiment: Kinetic characterization of purified wild-type 2,5-DKG reductase A (NADPH oxidation at 340 nm); assay type: biochemical; conditions: wild-type enzyme, 50 mM tris, pH 7.0, 0.2 mM NADPH, 25° C.
T1 construct: made in house; host or cells: Acetobacter cerinus
T1 sequence (P06632 whole entry): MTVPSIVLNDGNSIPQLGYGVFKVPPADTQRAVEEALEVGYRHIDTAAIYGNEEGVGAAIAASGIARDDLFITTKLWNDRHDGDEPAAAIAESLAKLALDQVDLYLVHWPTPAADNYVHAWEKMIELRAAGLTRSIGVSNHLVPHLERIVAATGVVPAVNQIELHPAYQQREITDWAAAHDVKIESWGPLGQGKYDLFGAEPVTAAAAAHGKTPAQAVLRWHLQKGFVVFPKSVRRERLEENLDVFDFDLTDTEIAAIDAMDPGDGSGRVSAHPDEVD
Protocol: (§1) The preparations of wild-type and mutant Q192R 2,5-DKG reductase A enzymes were characterized kinetically as to their ability to reduce the substrate 2,5-DKG to 2-KLG. Assays were done in 1 ml total volume of 50 mM tris, pH 7.0, containing 0.2 mM NADPH, a constant amount of enzyme ([…]) and amounts of substrate varying from 2 to 14 mM. The assays were done at 25° C., and the rate of substrate reduction was measured spectrophotometrically by measuring the loss of absorbance at 340 nm wavelength (which is indicative of the oxidation of the cofactor NADPH to NADP+).
(§2) The data were analyzed according to the well-known Michaelis equation to determine the kinetic parameters Vmax and Km using the Enzfit software package (Biosoft, Cambridge, UK) on a Epson desktop computer.

[2] = biological target: T2, Corynebacterium sp. 2,5-DKG reductase A mutant Q192R (arginine for glutamine at position 192) (Corynebacterium sp., UniProt P06632, Q192R); experiment: Kinetic characterization of purified mutant Q192R 2,5-DKG reductase A (NADPH oxidation at 340 nm); assay type: biochemical; conditions: 50 mM tris, pH 7.0, 0.2 mM NADPH, 25° C.
T2 construct: made in house; host or cells: Acetobacter cerinus
T2 sequence (P06632 whole entry Q192R): as the sequence (P06632 whole entry) above, with Q192R counted along it
Protocol: as §1, §2

## O=C(O)C(=O)[C@@H](O)[C@H](O)C(=O)CO [2,5-DKG, 2,5-diketo-D-gluconic acid]
[1]
  specificity constant (kcat/Km): 140 M⁻¹ s⁻¹
[1]; substrate 2 to 14 mM
  Vmax for the 2,5-DKG substrate: 7.8 μmoles per minute per milligram of protein
[1]; substrate 2 to 14 mM, read-out: Km or Michaelis constant
  Km: 28 mM
[2]
  specificity constant (kcat/Km): 335 M⁻¹ s⁻¹
[2]; substrate 2 to 14 mM
  Km: 21 mM
  Vmax for the 2,5-DKG substrate: 14.0 μmoles per minute per milligram of protein
